Source: patent US11944614B2, “Imidazo[4,5-c]pyridine compounds as LSD-1 inhibitors” (THE REGENTS OF THE UNIVERSITY OF MICHIGAN, priority 2018, dated 2024)

Biological target: Human recombinant LSD1 protein (Homo sapiens (Human), UniProt O60341)
Experiment: LSD1 enzymatic activity, AlphaLISA demethylation assay
Type: biochemical
Conditions: 4 nM LSD1, 80 nM Biotin-H3K4Me peptide substrate, 1% DMSO, 60 minutes reaction
Method: Human recombinant LSD1 protein expressed in E. coli cells was purchased from Active Motif (Carlsbad, Calif.). Biotin-labeled Histone H3K4Me peptide (residues 1-21 with Lys 4 monomethylated) substrate was purchased from Anaspec (Fremont, Calif.). Enzymatic activity was assessed using the AlphaLISA technology from Perkin Elmer Life Sciences (Waltham, Mass.). 2.5 μL of compound solution and 5 μL of LSD1 solutions in the assay buffer (50 mM Tris, pH 9.0, 50 mM NaCl with 0.01% Tween20 and 1 mM DTT added right before the assay) were added into a white low volume 384 well microtiter plate. This mixture solution was incubated for 15 minutes with gentle shaking at room temperature. Demethylation reaction was initiated by adding 2.5 μL of Biotin-H3K4Me peptide substrate solution in the assay buffer. Final concentrations of LSD1, Biotin-H3K4Me peptide substrate, and DMSO were 4 nM, 80 nM, and 1%, respectively. The reaction was allowed to proceed for 60 minutes in dark with gentle shaking at room temperature, after which 5 μL of Anti-H3K4 AlphaLISA acceptor beads in detection buffer from the manufacturer was added into the reaction mixture followed by incubation for 60 minutes. 10 μL of Streptavidin labeled AlphaLISA donor beads in detection buffer was added into the mixture followed by 30-minute incubation. Final acceptor and donor beads concentrations were both at 10 μg/mL. Plates were read on a BMG CLARIOStar multimode plate reader from BMG Labtech (Ortenberg, Germany) with an excitation wavelength of 680 nm and emission wavelength of 615 nm. IC50 values of inhibitors were obtained by fitting the fluorescence intensity vs inhibitor concentrations in a sigmoidal dose-response curve (variable slope) with a non-linear regression using Prism 7 (La Jolla, Calif.).

IC50 | SMILES
47 nM | CN1CCOc2ccc(-c3ncc4c(ncn4C[C@H]4CCNC4)c3-c3ccc(C#N)c(F)c3)cc21 [compound 29, (S)-2-fluoro-4-(6-(4-methyl-3,4-dihydro-2H-benzo[b][1,4]oxazin-6-yl)-3-(pyrrolidin-3-ylmethyl)-3H-imidazo[4,5-c]pyridin-7-yl)benzonitrile]
39.8 nM | Cn1ncc2cc(-c3ncc4c(ncn4C[C@H]4CCNC4)c3-c3ccc(C#N)cc3)ccc21 [compound 30, (S)-4-(6-(1-methyl-1H-indazol-5-yl)-3-(pyrrolidin-3-ylmethyl)-3H-imidazo[4,5-c]pyridin-7-yl)benzonitrile]
87.2 nM | CN1CCC(Cn2cnc3c(-c4ccc(C#N)cc4)c(-c4ccc5c(cnn5C)c4)ncc32)C1 (centres unmarked) [compound 31, 4-(6-(1-methyl-1H-indazol-5-yl)-3-((1-methylpyrrolidin-3-yl)methyl)-3H-imidazo[4,5-c]pyridin-7-yl)benzonitrile]
5.67 nM | CN1CCOc2cc(-c3ncc4c(ncn4CC4CCNC4)c3-c3ccc(C#N)cc3)ccc21 (centres unmarked) [compound 32, 4-(6-(4-methyl-3,4-dihydro-2H-benzo[b][1,4]oxazin-7-yl)-3-(pyrrolidin-3-ylmethyl)-3H-imidazo[4,5-c]pyridin-7-yl)benzonitrile]
29.5 nM | CN1CCC(Cn2cnc3c(-c4ccc(C#N)cc4)c(-c4ccc5c(c4)OCCN5C)ncc32)C1 (centres unmarked) [compound 33, 4-(6-(4-methyl-3,4-dihydro-2H-benzo[b][1,4]oxazin-7-yl)-3-((1-methylpyrrolidin-3-yl)methyl)-3H-imidazo[4,5-c]pyridin-7-yl)benzonitrile]
